Results: ChEMBL document CHEMBL3352577, “A simple and widely applicable hit validation strategy for protein-protein interaction inhibitors based on a quantitative ligand displacement assay” (Bioorg Med Chem Lett, 2014)

Assays:
Bcl-2-like protein 1 [1] = biological target: T1, Bcl-2-like protein 1 (Homo sapiens, UniProt Q07817); test: Displacement of F-bid from human recombinant N-terminal His-tagged Bcl-xL (1 to 209) expressed in Escherichia coli BL21(DE3) after 2 hrs by fluorescence polarization assay
T1 sequence (Q07817 whole entry): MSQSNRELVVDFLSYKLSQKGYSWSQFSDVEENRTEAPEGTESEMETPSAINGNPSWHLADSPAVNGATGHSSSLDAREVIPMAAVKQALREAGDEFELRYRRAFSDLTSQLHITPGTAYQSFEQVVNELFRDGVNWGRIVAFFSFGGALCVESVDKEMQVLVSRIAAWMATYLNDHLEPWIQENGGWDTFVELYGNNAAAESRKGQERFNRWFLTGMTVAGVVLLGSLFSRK

[2] = biological target: T2, Induced myeloid leukemia cell differentiation protein Mcl-1 (Homo sapiens, UniProt Q07820); test: Displacement of F-bid from human recombinant N-terminal His-tagged Mcl-1 (1 to 319) expressed in Escherichia coli BL21(DE3) after 2 hrs by fluorescence polarization assay
T2 sequence (Q07820 whole entry): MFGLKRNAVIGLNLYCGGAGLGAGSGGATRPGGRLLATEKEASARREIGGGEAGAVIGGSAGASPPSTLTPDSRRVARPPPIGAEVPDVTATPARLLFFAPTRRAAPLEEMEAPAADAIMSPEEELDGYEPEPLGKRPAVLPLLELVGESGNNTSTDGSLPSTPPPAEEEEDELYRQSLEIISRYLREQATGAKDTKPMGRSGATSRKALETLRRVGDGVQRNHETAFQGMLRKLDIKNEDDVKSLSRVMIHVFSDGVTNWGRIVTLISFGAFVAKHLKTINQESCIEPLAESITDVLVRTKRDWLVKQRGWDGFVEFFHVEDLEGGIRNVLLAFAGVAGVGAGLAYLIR

Bcl-2-like protein 1 [3] = biological target: T1, Bcl-2-like protein 1; test: Displacement of F-bid from human recombinant N-terminal His-tagged Bcl-xL (1 to 209) expressed in Escherichia coli BL21(DE3) after 30 mins by TR-FRET assay
Bcl-2-like protein 1 [4] = biological target: T1, Bcl-2-like protein 1; test: Displacement of F-bid from human recombinant N-terminal His-tagged Bcl-xL (1 to 209) expressed in Escherichia coli BL21(DE3) after 120 mins by TR-FRET assay
Bcl-2-like protein 1 [5] = biological target: T1, Bcl-2-like protein 1; test: Reversible inhibition of human recombinant N-terminal His-tagged Bcl-xL (1 to 209) expressed in Escherichia coli BL21(DE3) after 30 to 120 mins by TR-FRET assay in presence of F-bid
[6] = biological target: T2, Induced myeloid leukemia cell differentiation protein Mcl-1; test: Displacement of F-bid from human recombinant N-terminal His-tagged Mcl-1 (1 to 319) expressed in Escherichia coli BL21(DE3) after 120 mins by TR-FRET assay

Row | Ki (Bcl-2-like protein 1 [1]) | Ki [2] | IC50 (Bcl-2-like protein 1 [3]) | IC50 (Bcl-2-like protein 1 [4]) | Ki (Bcl-2-like protein 1 [4]) | Ki (Bcl-2-like protein 1 [5]) | Ki [6] | Compound
1 | 4.7 µM | 14 µM | 18 µM | 19 µM | 12 µM | 13 µM | 12 µM | O=C(CC(Sc1ccc(Cl)cc1)C(=O)O)c1ccc(C2CCCCC2)cc1 (centres undefined)
2 | – | – | – | – | – | 9 µM | 20 µM | O=C(CC(Cc1ccc(Cl)cc1)C(=O)O)c1ccc(C2CCCCC2)cc1 (centres undefined)
